Laboratory results taken from ChEMBL document CHEMBL3826874, “Exploring new scaffolds for angiotensin II receptor antagonism” (Bioorg Med Chem, 2016).

Legend:
[1] = molecular target: T1, Type-1 angiotensin II receptor (Homo sapiens) (UniProt P30556); experiment: (§1) Displacement of [125I-Sar1-Ile8]Ang2 from human AT1 receptor expressed in HEK293 cell membrane incubated for 1 hr by gamma counting method; type: cell membranes
T1 sequence (whole entry): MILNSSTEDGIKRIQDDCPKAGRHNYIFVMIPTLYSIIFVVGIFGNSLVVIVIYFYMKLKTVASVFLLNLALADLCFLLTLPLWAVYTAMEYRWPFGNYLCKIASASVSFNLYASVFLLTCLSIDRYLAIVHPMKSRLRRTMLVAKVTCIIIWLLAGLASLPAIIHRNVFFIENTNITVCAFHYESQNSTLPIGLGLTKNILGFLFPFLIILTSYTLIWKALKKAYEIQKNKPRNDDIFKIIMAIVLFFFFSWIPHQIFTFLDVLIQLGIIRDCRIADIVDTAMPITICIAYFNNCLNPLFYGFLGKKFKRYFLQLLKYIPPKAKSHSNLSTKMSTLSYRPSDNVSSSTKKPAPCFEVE

[2] = molecular target: T2, Type-1 angiotensin II receptor (Homo sapiens, UniProt P30556); experiment: as §1; type: cell membranes
T2 sequence (P30556 whole entry): T1 sequence (whole entry)

Compound	inhibition [1]	IC50 ([2]; read-out: pIC50 (converted)) [µM]	IC50 ([2]; read-out: IC50) [µM]
Cc1ccc(CN(c2ccc(C(=O)NCc3ccccn3)cc2)S(C)(=O)=O)cc1	Dose-dependent effect	2.09	
CN(Cc1cn(-c2ccccc2)nc1-c1ccc(F)cc1)C(=O)CCC(=O)O	Dose-dependent effect	2.57	
CN(Cc1cn(-c2ccccc2)nc1-c1ccc(Cl)cc1)C(=O)CCC(=O)O	Dose-dependent effect		0.199
Cc1ccc(C)c(NC(=O)CN(C)C(=O)c2ccc(S(=O)(=O)N3CCCCCC3)cc2)c1	Dose-dependent effect	2.19	
